Assay results published in US10076525B2, “Sex steroid precursors alone or in combination with selective estrogen receptor modulators for the prevention and treatment of dyspareunia in postmenopausal women” (ENDORECHERCHE, INC., priority 2004, dated 2018).
Counter-ions that a name gives are not always drawn.

How the values were obtained:
estrogen receptor = assay: Testing of antiestrogens for SERM function
rat vagina [1] = assay: Comparison of SERMs: vaginal epithelium morphology in the OVX rat (Example 2); conditions: OVX rats, 0.5 mg/kg oral daily
Description: Ten to twelve week-old female Sprague-Dawley rats (Crl:CD(SD)Br) (Charles River Laboratory, St-Constant, Canada) weighing 215-265 g at time of ovariectomy were used. The animals were housed individually in an environmentally-controlled room (temperature: 22±3° C.; humidity: 50±20%; 12-h light-12-h dark cycles, lights on at 07:15 h). The animals were allowed free access to tap water and a certified rodent feed (Lab Diet 5002 (pellet), Ralston Purina, St-Louis, Mo.).
Different experiments were performed: two 20-day and two 8-month studies. In each of the two first experiments, the animals were randomly distributed between 3 groups of 13 or 14 animals as follows: 1) Intact control; 2) Ovariectomized (OVX) control; 3) OVX+raloxifene (0.5 mg/kg), or, 3) OVX+LY 363381 (0.5 mg/kg). […] In the other 8-month study, the animals were randomly distributed between 3 groups of 10-11 animals as follows: 1) Intact control; 2) Ovariectomized (OVX) control; 3) OVX+lasofoxifene (0.5 mg/kg). […] The tested compounds were then given once daily by oral gavage as a suspension in 0.4% methylcellulose (0.5 ml/rat) from day 1 to day 20 of the study or from day 1 to week 32 of the study.
Twenty-four hours after the last dosing, the animals were sacrificed under isoflurane anesthesia by exsanguination. The vaginae were collected and immersed in 10% neutral buffered formalin immediately after resection. […] The segments were then routinely processed and embedded in paraffin blocks. When appropriate, all the segments were positioned in the paraffin block in a sequence corresponding to their original anatomical position and oriented perpendicular to the surface of the block, thus allowing the segments to be cut in cross-sections. For each animal, a 4 μm-thick paraffin section was cut and stained with haematoxylin-eosin for morphological examination.

rat vagina [2] = assay: Histological evaluation of epithelium, lamina propria and muscularis in the seven rat vaginal segments; format: in vivo; conditions: OVX rats, 36 wk
Excerpt: The animals were housed individually and were allowed free access to water and rodent food (Lab Diet 5002, Ralston Purina, St-Louis, Mo.).
(§1) Animals from the intact and OVX control groups received the vehicle alone.
(§2) Twenty-four hours after the last dosing, overnight fasted animals were sacrificed under isoflurane anesthesia by exsanguination at the abdominal aorta (9 animals per group) or by intracardiac perfusion with 10% neutral buffered formalin (5 animals per group). Vaginae from non-perfused animals were collected and weighed, while the vaginae collected from perfused animals were marked with black ink on the ventral side, and then trimmed as described below.
(§3) The entire vagina of each perfused animal was post-fixed in 10% neutral buffered formalin.
The degree of compactness of collagen fibers in the vagina was categorized as low, moderate and high (FIGS. 6A-6C, respectively), as observed in the area proximal to the epithelium. <<Low>> and <<moderate compactness>> were associated with the presence of coarse collagen fibers loosely or less loosely aggregated together, respectively, while <<high compactness>> was the term used to describe tightly packed fine collagen fibers, displaying a smooth, textured appearance. In all the animals, there were relatively few fibrocytes in proportion to the amount of collagen, and they appeared predominantly flattened and shrunken.

PR = assay: Immunohistochemistry of PR in fifth vaginal segment; format: in vivo, rat; conditions: OVX rats, 36 wk
Description: as §1
(§4) Immunostaining was performed using Zymed SP kits (San Francisco, Calif.). Paraffin sections (4 μm) were deparaffinized in toluene and rehydrated through ethanol. Endogenous peroxidase activity was eliminated by preincubation with 3% H2O2 in methanol for 30 min. A microwave retrieval technique using citrate buffer (Tacha and Chen, 1994) was applied. After cooling the slides, non-specific binding was blocked using 10% goat serum for 20 min. Sections were then incubated for 1.5 h at room temperature with ERα (AB-1, Calbiochem, California), AR (N-20, Santa Cruz Biotechnology, California) or PR (Ab-4, NeoMarkers, California) antibodies, at 1:200, 1:250 and 1:250 respectively. After washing in PBS buffer, sections were incubated with biotinylated anti-rabbit secondary antibody for 10 min and thereafter with streptavidin-peroxidase for another 10 min. Diaminobenzidine was used as the chromogen to visualize the biotin/streptavidin-peroxidase complex, under microscope monitoring. Counterstaining was performed using #2 Gill's hematoxylin for 30 sec. For controls, immunoabsorption with an excess of the peptide used to raise the antibody, or substitution with non immune rabbit IgG, was performed.

rat vagina [3] = assay: Vaginal weight after 36 weeks of treatment; format: in vivo; conditions: OVX rats, 36 wk, versus OVX
Excerpt: as §1, §2
(§5) Data are presented as means±SEM of 8-9 animals per group for vaginal weight or 5 animals per group for vaginal layer thickness determinations. Statistical significance was determined according to the multiple-range test of Duncan-Kramer (Kramer, 1956, Biometrics, 12: 307-310).

rat vagina [4] = assay: Histomorphometry: thickness of vaginal layers at the fifth segment; format: in vivo; conditions: OVX rats, 36 wk, fifth segment, mean±SEM
Excerpt: as §1, §2, §3
Measurements of the different vaginal layers were performed on the fifth segment (FIG. 1), which is approximately halfway between the middle region and the portio vaginalis uteri (segment 7). […] Images were captured with a DC-330 3CCD color camera (Dage-MTI, Michigan City, Ind., USA) and quantified using Image-Pro Plus 3.0 software (Media Cybernetics, Silver Spring, Md., USA). Thus, using a ×5 objective (Leica Microsystems, Willowdale, Ont., Canada), 3 to 4 thickness measurements per layer were obtained from representative areas of the epithelium and muscularis, and for the three vaginal layers together. The total vaginal thickness, the thickness of the epithelium and the thickness of the muscularis were thus measured. The thickness of the lamina propria was obtained by subtracting the thickness of the epithelium and muscularis from total vaginal thickness.
as §5

AR = assay: Immunohistochemistry of AR in fifth vaginal segment; format: in vivo, rat; conditions: OVX rats, 36 wk
Description: as §1, §4

[5] = Acolbifene 2.5, Premarin 0.5 mg/kg oral, DHEA 80 mg/kg dorsal skin, segment 1

Question: `CC/C(=C(/c1ccc(OCCN(C)C)cc1)c1cccc(O)c1)c1ccccc1` [Droloxifene] was tested. Which “function as SERM” value (estrogen receptor) did it give?
Answer: found to function as SERMs

Question: For `COc1ccc(-c2sc3cc(O)ccc3c2Oc2ccc(OCCN3CCCCC3)cc2)cc1` [LY 363381], which “mucous cell layer(s) overlying the basal cell layer, middle of the vagina” value (rat vagina [1]; 20-day study) is on record?
Answer: many

Question: Which results are given for `Cc1c(-c2ccc(O)cc2)n(Cc2ccc(OCCN3CCCCCC3)cc2)c2ccc(O)cc12` [TSE-424]?
Answer: function as SERM (estrogen receptor): found to function as SERMs; mucous cell layer(s) overlying the basal cell layer, middle of the vagina (rat vagina [1]; 8-month study): one

Question: `CC1=C(c2ccc(OC(=O)C(C)(C)C)cc2)[C@H](c2ccc(OCCN3CCCCC3)cc2)Oc2cc(OC(=O)C(C)(C)C)ccc21` [EM-800] was tested. Which “function as SERM” value (estrogen receptor) did it give?
Answer: found to function as SERMs

Question: For `CC/C(=C(\c1ccccc1)c1ccc(OCCN(C)C)cc1)c1ccccc1` [Tamoxifen, (Z)-2-[4-(1,2-diphenyl-1-butenyl)]-N,N-dimethylethanamine], which “function as SERM” value (estrogen receptor) is on record?
Answer: found to function as SERMs

Question: What does the source list for `Oc1ccc2c(c1)CC[C@H](c1ccccc1)[C@@H]2c1ccc(OCCN2CCCC2)cc1` [lasofoxifene, (−)-cis-(5R,6S)-6-phenyl-5-[4-(2-pyrrolidin-1-ylethoxy)phenyl]-5,6,7,8-tetrahydronaphthalen-2-ol, D-(−)-tartrate salt]?
Answer: function as SERM (estrogen receptor): found to function as SERMs; mucous cell layer(s) overlying the basal cell layer, middle of the vagina (rat vagina [1]; 8-month study): many

Question: How did the “function as SERM” value (estrogen receptor) turn out when `C[C@]12CC[C@@H]3c4ccc(O)cc4C[C@@H](CCCCCCCCC[S+]([O-])CCCC(F)(F)C(F)(F)F)[C@H]3[C@@H]1CC[C@@H]2O` (stereo partly shown) [ICI 182,780] was run?
Answer: found not to function as SERM

Question: `CC1=C(c2ccc(O)cc2)[C@H](c2ccc(OCCN3CCCCC3)cc2)Oc2cc(O)ccc21.Cl` [Acolbifene] was tested. Which “compactness of collagen fibers (lamina propria)” value (rat vagina [2]; [5]) did it give?
Answer: M-M

Question: And the lamina propria thickness (rat vagina [2]; [5])?
Answer: M-M

Question: What about the epithelium morphology (rat vagina [2]; Acolbifene 2.5, Premarin 0.5 mg/kg oral, DHEA 80 mg/kg dorsal skin, segment 2) of the same compound?
Answer: SCM-A

Question: What about the epithelium morphology (rat vagina [2]; Acolbifene 2.5, Premarin 0.5 mg/kg oral, DHEA 80 mg/kg dorsal skin, segment 3) of the same compound?
Answer: SCM-A

Question: And the epithelium morphology (rat vagina [2]; Acolbifene 2.5, Premarin 0.5 mg/kg oral, DHEA 80 mg/kg dorsal skin, segment 4)?
Answer: SCM-A

Question: What about the epithelium morphology (rat vagina [2]; Acolbifene 2.5, Premarin 0.5 mg/kg oral, DHEA 80 mg/kg dorsal skin, segment 5) of the same compound?
Answer: SCM-A

Question: What about the epithelium morphology (rat vagina [2]; Acolbifene 2.5, Premarin 0.5 mg/kg oral, DHEA 80 mg/kg dorsal skin, segment 6) of the same compound?
Answer: SCM-A

Question: And the epithelium morphology (rat vagina [2]; Acolbifene 2.5, Premarin 0.5 mg/kg oral, DHEA 80 mg/kg dorsal skin, segment 7)?
Answer: SCM-A

Question: And the “epithelium thickness of segment 1 (external opening)” value (rat vagina [2]; OVX controls 4-6 layers)?
Answer: 9-11 cell layers

Question: What about the “animals showing signs of minimal inflammation” value (rat vagina [2]; moderate to severe inflammation in all OVX animals) of the same compound?
Answer: three out of five

Question: And the “PR: semi-quantitative evaluation of labeled nuclei” value (“PR: semi-quantitative evaluation” for short) (PR; epithelium)?
Answer: 0

Question: And the “PR: semi-quantitative evaluation” value (PR; lamina propria)?
Answer: 0

Question: And the “PR: semi-quantitative evaluation” value (PR; muscularis)?
Answer: 0

Question: And the “effect on vaginal weight” value (rat vagina [3])?
Answer: no effect

Question: What about the “total vaginal wall thickness” value (rat vagina [4]; OVX 128±3, intact 262±39) of the same compound?
Answer: 108±8 μm

Question: What about the lamina propria thickness (rat vagina [4]; total minus epithelium and muscularis, OVX 76±2, intact 135±28) of the same compound?
Answer: 60±8 μm

Question: And the “mucous cell layer(s) overlying the basal cell layer, middle of the vagina” value (rat vagina [1]; 8-month study)?
Answer: one

Question: And the “AR: labeling intensity” value (AR; epithelium)?
Answer: ++

Question: And the “AR: semi-quantitative evaluation of labeled nuclei” value (“AR: semi-quantitative evaluation” for short) (AR; epithelium)?
Answer: 2

Question: What about the “AR: labeling intensity” value (AR; lamina propria) of the same compound?
Answer: +++

Question: What about the “AR: semi-quantitative evaluation” value (AR; lamina propria) of the same compound?
Answer: 1

Question: What about the “AR: labeling intensity” value (AR; muscularis) of the same compound?
Answer: +++

Question: And the “AR: semi-quantitative evaluation” value (AR; muscularis)?
Answer: 1

Question: With `COc1ccc(-c2sc3cc(O)ccc3c2Oc2ccc(OCCN3CCCCC3)cc2)cc1` [Arzoxifene] as the compound, how does the “function as SERM” value (estrogen receptor) read?
Answer: found to function as SERMs

Question: What does the source list for `O=C(c1ccc(OCCN2CCCCC2)cc1)c1c(-c2ccc(O)cc2)sc2cc(O)ccc12` [Raloxifene]?
Answer: function as SERM (estrogen receptor): found to function as SERMs; mucous cell layer(s) overlying the basal cell layer, middle of the vagina (rat vagina [1]; 20-day study): many

Question: Which “function as SERM” value (estrogen receptor) does the source give for `CC/C(=C(\c1ccccc1)c1ccc(/C=C/C(=O)O)cc1)c1ccccc1` [GW-5638] here?
Answer: found to function as SERMs

Question: `Cc1c(-c2ccc(O)cc2)n(Cc2ccc(OCCN3CCCCC3)cc2)c2ccc(O)cc12` [ERA-923] was tested. Which “mucous cell layer(s) overlying the basal cell layer, middle of the vagina” value (rat vagina [1]; 8-month study) did it give?
Answer: one
